The values below come from patent US4146721A, “Pyrazol-4-acetic acid compounds” (priority 1970, dated 1979).

Each structure is given as a SMILES string. Like-named read-outs stand apart in the source and are kept apart here.

Data set [1] can be described thus: Analgesic effect: delay in the defense reaction of the mouse upon thermal stimulation of the root of the tail by a heat beam. Particulars: mouse, in vivo; LD5 I.P. / ED40 oral; read-out: Therapeutic Index LD5/ED40. In kind it is in vivo. As to the method:
(§1) The analgesic effect is measured as the mean delay in the defense reaction of the mouse by 20% (ED20) and 40% (ED40) during 2 hours upon thermal stimulation of the root of the tail by a heat beam relative to aminophenazone.

Data set [2] has as its system mouse. The description is as above. In kind it is in vivo. Conditions: oral; for ED20 / ED40: Mus musculus; for ED20: mean delay in defense reaction by 20% during 2 hours; for ED40: mean delay in defense reaction by 40% during 2 hours; for ED20 Relative / ED40 Relative: relative to aminophenazone. The procedure:
as §1

For data set [3], the system named is mouse. Particulars: Table II; I.P.
Method: (§2) ^3) Dose, at which 50% of the animals died within 72 hours after
administration of the substance
Another data set can be described thus: in vivo. Conditions: mouse, ip.
Data set [4] deals with Carrageenin edema of the rear paw of the rat. The data set is described as follows: Carrageenin edema of the rear paw (antiphlogistic effect). In kind it is in vivo. Conditions: for Retardation of the Carrageenin Edema, Relative Effect: Phenylbutazon = 1.0; for ED40: read-out: Retardation of the Carrageenin Edema by 40% by mg/kg oral.
Data set [5] has as its system ultraviolet erythema of the skin on the back of the guinea pig. The experiment in a line: Ultraviolet erythema of the skin on the back (antiphlogistic effect). In kind it is in vivo. Particulars: for ED50: Cavia porcellus, read-out: Retardation of the UV-Erythema by 50% by mg/kg oral; for Retardation of the UV-Erythema, Relative Effect: Phenylbutazon = 1.0.
For data set [6] the following is noted: cited from earlier work.
A further data set relates to rat. The experiment in a line: Lowering of the normal temperature of the rat. In kind it is in vivo. Particulars: for ED (15 degC temperature lowering): ip, read-out: dose i.p. that lowered the normal temperature of the rat by 15.° C. As to the method: In addition thereto, the new pyrazole compounds of the invention effect a lowering of the temperature in mammalians: 60 mg/kg of compound A and 25 mg/kg of compound L, administered i.p. to the rat lowered the normal temperature of the rat by 15.° C.

Setting [7] is: rat, oral, dose for 40% retardation.
The mark [8] stands for this setting: Toxicity LD50 after a single dose in the mouse, Table I, i.p., 50% of the animals died within 72 hours.
[9] abbreviates: guinea pig, oral, dose for 50% retardation.
The mark [10] stands for this setting: rat, lowering by 15.° C. (so in the source).

Method for in vivo: as §2
administration of the substance

The LD50 is the dose at which mortality reaches 50%. Low readings indicate greater toxicity, high ones lower toxicity. For `Cc1nn(-c2ccccc2)c(C)c1CC(N)=O` [P, 3,5-dimethyl-1-phenyl-pyrazol-4-acetamide], the selectivity ratio in data set [1] came out at 3.3. In addition, in the data set on mouse [2], the ED20 is 50 mg/kg, the ED40 came to 150 mg/kg, the “ED20 Relative” value is on record as 1.0 and the “ED40 Relative” value was 0.9. This compound also returned an LD5 with mouse [3] of 500 mg/kg. Besides, the LD50 at 72 h in “in vivo” (LD50, Table II, I.P.) stood at 500 mg/kg.
For the compound `Cc1nn(-c2ccccc2)c(C)c1CC#N` [Q, 3,5-dimethyl-1-phenyl-pyrazol-4-acetonitrile], in the data set on mouse [2], the ED20 was 20 mg/kg, the ED40 came to 40 mg/kg, the “ED20 Relative” value is 2.5 and the “ED40 Relative” value was determined as 3.5.
For the compound `COc1ccc(-n2nc(C)c(CC(=O)O)c2C)cc1` [F, 3,5-dimethyl-1-(p-methoxyphenyl)-pyrazol-4-acetic acid], the “Retardation of the Carrageenin Edema, Relative Effect” value in data set [4] (rat, oral) is 0.6. In addition, the ED40 in data set [4] (setting [7]) turned out to be 50 mg/kg. For the same compound, the LD50 at 72 h in “in vivo” (setting [8]) was 1000 mg/kg.
In the case of `O=C(O)Cc1c(-c2ccc(Cl)cc2)nn(-c2ccccc2)c1-c1ccc(Cl)cc1` [M, 1-phenyl-3,5-bis-(p-chlorophenyl)-pyrazol-4-acetic acid], the selectivity ratio in data set [1] turned out to be 1.9. Also, in the data set on mouse [2], the ED20 came out at 7 mg/kg, the ED40 is 20 mg/kg, the “ED20 Relative” value is 7.1 and the “ED40 Relative” value is recorded as 7.0. In the data set with mouse [3], this compound gave an LD5 of 38 mg/kg. This compound also registered an LD50 at 72 h in the data set “in vivo” (LD50, Table II, I.P.) of 51 mg/kg.
Regarding `Cc1nn(-c2ccccc2)c(-c2ccccc2)c1CC(=O)O` [G, 3-methyl-1,5-diphenyl-pyrazol-4-acetic acid], the ED50 in data set [5] (setting [9]) worked out at 20 mg/kg. For the same compound, the “Retardation of the UV-Erythema, Relative Effect” value in data set [5] (guinea pig, oral) is listed as 0.8. For the same compound, the LD50 at 72 h in “in vivo” (setting [8]) came to 500 mg/kg.
On to `COc1cccc(-c2nn(-c3ccccc3)c(-c3cccc(OC)c3)c2CC(=O)O)c1` [N, 1-phenyl-3,5-bis-(m-methoxyphenyl)-pyrazol-4-acetic acid], for which the selectivity ratio in data set [1] stood at 3.6. Besides, in the data set with mouse [2], the ED20 was 30 mg/kg, the ED40 came out at 55 mg/kg, the “ED20 Relative” value came to 1.7 and the “ED40 Relative” value was 2.5. In the data set on mouse [3], this compound showed an LD5 of 200 mg/kg. Further, the LD50 at 72 h in “in vivo” (LD50, Table II, I.P.) was 312 mg/kg.
Turning to `O=C(O)Cc1cn(-c2ccccc2)nc1-c1ccc(Cl)cc1` [D, 1-phenyl-3-(p-chlorophenyl)-pyrazol-4-acetic acid], the ED40 in data set [4] (setting [7]) came out at 2.5 mg/kg. Further, the ED50 in data set [5] (setting [9]) was found to be 3 mg/kg.
With `O=C(O)Cc1c(-c2ccccc2)nn(-c2cccnc2)c1-c1ccccc1` [C, 3,5-diphenyl-1-(3-pyridyl)-pyrazol-4-acetic acid], in data set [4] (rat, oral), the “Retardation of the Carrageenin Edema, Relative Effect” value came to 1.5. The ED40 in data set [4] (setting [7]) turned out to be 20 mg/kg. Moreover, the ED50 in data set [5] (setting [9]) came out at 2.5 mg/kg. In addition, the “Retardation of the UV-Erythema, Relative Effect” value in data set [5] (guinea pig, oral) was 6.4. In addition, the LD50 at 72 h in “in vivo” (setting [8]) is 1150 mg/kg.
In the same order, the values of `CC(C(=O)O)c1c(-c2ccccc2)nn(-c2ccccc2)c1-c1ccccc1` (stereo not drawn) [H, α-methyl-1,3,5-triphenyl-pyrazol-4-acetic acid] are 1.0, 30 mg/kg, 5 mg/kg, 3.2 and 199 mg/kg.
In the case of `COc1ccc2c(c1)c(CC(=O)O)c(C)n2C(=O)c1ccc(Cl)cc1` [Indomethacin, 2-methyl-5-methoxy-1-(p-chlorobenzoyl)-indol-3-acetic acid, reference compound], the “Retardation of the Carrageenin Edema, Relative Effect” value in data set [4] (rat, oral) is listed as 7.5. For the same compound, in data set [4] (Rattus norvegicus, po), the ED40 was found to be 4 mg/kg. The ED50 in data set [5] (po) was 20 mg/kg. For the same compound, the “Retardation of the UV-Erythema, Relative Effect” value in data set [5] (guinea pig, oral) is given as 0.8. Moreover, the side effects result in data set [6] (Chem. Eng. News 46 (1968)) was “many undesirable side effects”. Besides, in data set [6] (J. Am. Chem. So. 85, 488 (1963)), the “antiphlogistic, analgesic and antipyretic effectiveness compared with 4-n-butyl-1,2-diphenyl-3,5-dioxopyracoline” value is “surpassing in this respect the effectiveness”. The LD50 at 72 h in the data set “in vivo” turned out to be 45 mg/kg.
For the compound `CCOC(=O)Cc1c(-c2ccccc2)nn(-c2cccc(C(F)(F)F)c2)c1-c1ccccc1` [O, 3,5-diphenyl-1-(α,α,α-trifluoro-m-tolyl)-pyrazol-4-acetic acid-ethyl ester], in the data set on mouse [2], the ED20 is 50 mg/kg, the ED40 worked out at 70 mg/kg, the “ED20 Relative” value is 1.0 and the “ED40 Relative” value is 2.0.
Turning to `CCCCC1C(=O)N(c2ccccc2)N(c2ccccc2)C1=O` [Phenylbutazon, reference compound], in data set [4] (setting [7]), the ED40 is 30 mg/kg. Further, the ED50 in data set [5] (setting [9]) is 16 mg/kg. In addition, in the data set on mouse [2], the ED20 came to 150 mg/kg.
For `Cc1c(N(C)C)c(=O)n(-c2ccccc2)n1C` [Aminophenazone, reference compound], the selectivity ratio in data set [1] was determined as 1.9. In the data set on mouse [2], this compound had an ED20 of 50 mg/kg and an ED40 of 140 mg/kg. In addition, in the data set with rat (setting [10]), the ED (15 degC temperature lowering) stood at 70 mg/kg. The compound further came in with an LD5 in the data set with mouse [3] of 270 mg/kg. In addition, the 50% lethal dose (LD50) at 72 h in “in vivo” is 330 mg/kg.
In the case of `COc1ccc(-c2nn(-c3ccccc3)cc2CC#N)cc1` [R, 1-phenyl-3-(p-methoxyphenyl)-pyrazol-4-acetonitrile], in the data set on mouse [2], the ED20 was 50 mg/kg, the ED40 came out at 80 mg/kg, the “ED20 Relative” value is 1.0 and the “ED40 Relative” value is recorded as 1.8.
Turning to `CCCCn1nc(C)c(CC(=O)O)c1C` [E, 3,5-dimethyl-1-n-butyl-pyrazol-4-acetic acid], in data set [4] (rat, oral), the “Retardation of the Carrageenin Edema, Relative Effect” value came out at 0.6. The ED40 in data set [4] (setting [7]) was 50 mg/kg. The compound further yielded an LD50 at 72 h in the data set “in vivo” (setting [8]) of 1400 mg/kg.
Regarding `O=C(O)Cc1cnn(-c2ccccc2)c1-c1ccc(Cl)cc1` [I, 1-phenyl-5-(p-chlorophenyl)-pyrazol-4-acetic acid], in data set [1], the selectivity ratio is 2.6. In the data set on mouse [2], the ED20 came out at 50 mg/kg, the ED40 worked out at 70 mg/kg, the “ED20 Relative” value is 1.0 and the “ED40 Relative” value is 2.0. Besides, the LD5 in the data set on mouse [3] turned out to be 180 mg/kg. In addition, the LD50 at 72 h in “in vivo” (LD50, Table II, I.P.) worked out at 279 mg/kg.
For the compound `O=C(O)Cc1c(-c2ccco2)nn(-c2ccccc2)c1-c1ccco1` [B, 1-phenyl-3,5-di-(2-furyl)-pyrazol-4-acetic acid], the “Retardation of the Carrageenin Edema, Relative Effect” value in data set [4] (rat, oral) stood at 3.0. The ED40 in data set [4] (setting [7]) worked out at 10 mg/kg. Besides, the ED50 in data set [5] (setting [9]) is 1.5 mg/kg. In addition, the “Retardation of the UV-Erythema, Relative Effect” value in data set [5] (guinea pig, oral) was 10.7. The selectivity ratio in data set [1] worked out at 3.8. Besides, in the data set on mouse [2], the ED20 is 10 mg/kg, the ED40 is 50 mg/kg, the “ED20 Relative” value was determined as 5.0 and the “ED40 Relative” value is 2.8. In the data set with mouse [3], this compound showed an LD5 of 190 mg/kg. In the data set “in vivo” (LD50, Table II, I.P.), this compound had an LD50 at 72 h of 373 mg/kg. This compound also yielded an LD50 at 72 h in “in vivo” (setting [8]) of 370 mg/kg.
For `O=C(O)Cc1c(-c2ccccc2)nn(-c2ccccc2)c1-c1ccccc1` [A, 1,3,5-triphenyl-pyrazol-4-acetic acid], the “Retardation of the Carrageenin Edema, Relative Effect” value in data set [4] (rat, oral) is 6.0. In data set [4] (Rattus norvegicus, po), the ED40 stood at 5 mg/kg. Moreover, the ED50 in data set [5] (po) was determined as 3 mg/kg. The “Retardation of the UV-Erythema, Relative Effect” value in data set [5] (guinea pig, oral) is recorded as 5.3. Also, the “lowering of the normal temperature of the rat” value with rat (60 mg/kg i.p.) is recorded as 15. ° C. Moreover, in the data set with rat (Rattus norvegicus), the ED (15 degC temperature lowering) is 60 mg/kg. In addition, the LD50 at 72 h in the data set “in vivo” was found to be 312 mg/kg.
Take `CCCCn1nc(-c2ccccc2)c(CC(=O)O)c1-c1ccccc1` [K, 1-n-butyl-3,5-diphenyl-pyrazol-4-acetic acid]: in data set [1], the selectivity ratio came out at 4.5. For the same compound, in the data set with mouse [2], the ED20 was determined as 20 mg/kg, the ED40 is 80 mg/kg, the “ED20 Relative” value came out at 2.5 and the “ED40 Relative” value is on record as 1.8. Besides, the LD5 with mouse [3] was found to be 360 mg/kg. Further, the LD50 at 72 h in “in vivo” (LD50, Table II, I.P.) was 430 mg/kg.
In the case of `O=C(O)Cc1c(-c2ccccc2)nn(-c2ccc(Cl)cc2)c1-c1ccccc1` [L, 3,5-diphenyl-1-(p-chlorophenyl)-pyrazol-4-acetic acid], in the data set with mouse [2], the ED20 was found to be 15 mg/kg, the ED40 was determined as 55 mg/kg, the “ED20 Relative” value stood at 3.3 and the “ED40 Relative” value was 2.5. This compound returned a lowering of the normal temperature of the rat in the data set on rat (25 mg/kg i.p.) of 1.5 ° C. Besides, the ED (15 degC temperature lowering) with rat (setting [10]) is 25 mg/kg. Besides, the LD50 at 72 h in the data set “in vivo” (LD50, Table II, I.P.) was about 80 mg/kg.
